From ChEMBL document CHEMBL1150976, “The selectivity of protein kinase inhibitors: a further update” (Biochem J, 2007)

Columns and labels:
[1] = molecular target: Mitogen-activated protein kinase 3 (Homo sapiens) (UniProt P27361); experiment: Percentage ERK1 activity remaining in the presence of 0.01uM inhibitor
[2] = molecular target: RAC-alpha serine/threonine-protein kinase (Homo sapiens) (UniProt P31749); experiment: Percentage PKBalpha activity remaining in the presence of 0.01uM inhibitor
Sequence of RAC-alpha serine/threonine-protein kinase (Homo sapiens) (P31749 whole entry): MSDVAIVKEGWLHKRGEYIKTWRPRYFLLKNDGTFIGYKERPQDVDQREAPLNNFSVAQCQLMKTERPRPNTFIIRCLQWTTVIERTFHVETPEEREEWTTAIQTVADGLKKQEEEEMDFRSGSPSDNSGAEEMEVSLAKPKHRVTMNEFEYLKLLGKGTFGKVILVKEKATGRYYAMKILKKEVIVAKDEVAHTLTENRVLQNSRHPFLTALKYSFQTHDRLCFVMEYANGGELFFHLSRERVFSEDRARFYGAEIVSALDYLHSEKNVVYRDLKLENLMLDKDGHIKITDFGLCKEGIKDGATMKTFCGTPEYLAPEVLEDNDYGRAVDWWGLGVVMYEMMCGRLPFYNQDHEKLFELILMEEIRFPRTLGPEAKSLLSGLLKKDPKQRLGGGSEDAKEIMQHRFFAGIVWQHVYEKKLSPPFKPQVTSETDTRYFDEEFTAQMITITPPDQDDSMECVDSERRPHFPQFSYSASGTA

[3] = molecular target: Dual specificity mitogen-activated protein kinase kinase 1 (Homo sapiens) (UniProt Q02750); experiment: Percentage MKK1 activity remaining in the presence of 0.01uM inhibitor
Sequence of Dual specificity mitogen-activated protein kinase kinase 1 (Homo sapiens) (Q02750 whole entry): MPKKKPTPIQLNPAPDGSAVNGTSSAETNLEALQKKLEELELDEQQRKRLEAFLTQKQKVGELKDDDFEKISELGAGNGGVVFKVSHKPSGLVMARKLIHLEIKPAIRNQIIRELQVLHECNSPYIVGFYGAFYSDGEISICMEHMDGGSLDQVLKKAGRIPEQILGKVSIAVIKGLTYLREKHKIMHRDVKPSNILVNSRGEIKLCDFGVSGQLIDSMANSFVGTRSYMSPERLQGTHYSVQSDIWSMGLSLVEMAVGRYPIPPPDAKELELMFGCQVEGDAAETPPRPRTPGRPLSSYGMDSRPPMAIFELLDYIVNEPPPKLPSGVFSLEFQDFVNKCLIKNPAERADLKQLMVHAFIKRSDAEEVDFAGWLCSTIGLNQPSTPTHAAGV

[4] = molecular target: MAP kinase-interacting serine/threonine-protein kinase 2 (Homo sapiens) (UniProt Q9HBH9); experiment: Percentage MNK2 activity remaining in the presence of 0.01uM inhibitor
[5] = molecular target: Serine/threonine-protein kinase pim-1 (Homo sapiens, UniProt P11309); experiment: Percentage PIM1 activity remaining in the presence of 0.01uM inhibitor
Sequence of Serine/threonine-protein kinase pim-1 (P11309 whole entry, looked up): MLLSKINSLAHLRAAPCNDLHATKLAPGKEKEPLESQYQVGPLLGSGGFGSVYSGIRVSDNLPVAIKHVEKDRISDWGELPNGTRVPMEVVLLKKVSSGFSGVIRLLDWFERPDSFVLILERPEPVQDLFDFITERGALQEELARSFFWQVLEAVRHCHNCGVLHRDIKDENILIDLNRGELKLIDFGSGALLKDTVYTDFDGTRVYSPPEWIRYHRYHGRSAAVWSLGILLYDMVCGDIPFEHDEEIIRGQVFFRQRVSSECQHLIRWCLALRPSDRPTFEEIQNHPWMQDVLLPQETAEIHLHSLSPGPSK

[6] = molecular target: Proto-oncogene tyrosine-protein kinase Src (Gallus gallus) (UniProt P00523); experiment: Percentage Src activity remaining in the presence of 0.01uM inhibitor
[7] = molecular target: MAP kinase-activated protein kinase 3 (Homo sapiens) (UniProt Q16644); experiment: Percentage MAPKAPK3 activity remaining in the presence of 0.01uM inhibitor
Sequence of MAP kinase-activated protein kinase 3 (Homo sapiens) (Q16644 whole entry, looked up): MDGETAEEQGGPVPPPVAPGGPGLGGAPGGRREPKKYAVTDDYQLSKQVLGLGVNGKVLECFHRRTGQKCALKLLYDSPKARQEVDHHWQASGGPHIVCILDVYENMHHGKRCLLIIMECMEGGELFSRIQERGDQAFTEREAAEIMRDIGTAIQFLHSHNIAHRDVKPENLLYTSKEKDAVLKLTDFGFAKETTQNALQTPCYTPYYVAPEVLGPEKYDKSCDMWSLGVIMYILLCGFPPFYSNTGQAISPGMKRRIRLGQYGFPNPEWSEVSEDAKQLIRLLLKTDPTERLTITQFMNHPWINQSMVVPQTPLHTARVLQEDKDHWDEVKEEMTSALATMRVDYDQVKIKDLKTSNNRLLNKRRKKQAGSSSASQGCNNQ

[8] = molecular target: Homeodomain-interacting protein kinase 3 (Homo sapiens) (UniProt Q9H422); experiment: Percentage HIPK3 activity remaining in the presence of 0.01uM inhibitor
[9] = molecular target: Mitogen-activated protein kinase 8 (Homo sapiens, UniProt P45983); experiment: Percentage JNK1 activity remaining in the presence of 0.01uM inhibitor
Sequence of Mitogen-activated protein kinase 8 (P45983 whole entry): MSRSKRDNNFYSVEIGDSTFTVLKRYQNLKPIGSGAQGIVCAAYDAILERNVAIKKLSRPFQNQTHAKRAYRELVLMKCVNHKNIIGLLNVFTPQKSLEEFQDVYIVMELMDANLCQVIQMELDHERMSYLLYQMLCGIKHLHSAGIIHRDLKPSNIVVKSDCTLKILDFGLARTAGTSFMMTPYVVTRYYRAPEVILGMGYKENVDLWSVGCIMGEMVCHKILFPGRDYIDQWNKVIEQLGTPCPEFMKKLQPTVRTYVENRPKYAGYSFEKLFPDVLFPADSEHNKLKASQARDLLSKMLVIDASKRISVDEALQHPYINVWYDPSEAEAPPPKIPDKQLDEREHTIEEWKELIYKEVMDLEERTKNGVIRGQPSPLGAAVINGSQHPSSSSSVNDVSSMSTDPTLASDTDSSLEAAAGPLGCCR

[10] = molecular target: T1, Serine/threonine-protein kinase Chk1 (Homo sapiens) (UniProt O14757); experiment: Percentage CHK1 activity remaining in the presence of 0.01uM inhibitor
T1 sequence (whole entry): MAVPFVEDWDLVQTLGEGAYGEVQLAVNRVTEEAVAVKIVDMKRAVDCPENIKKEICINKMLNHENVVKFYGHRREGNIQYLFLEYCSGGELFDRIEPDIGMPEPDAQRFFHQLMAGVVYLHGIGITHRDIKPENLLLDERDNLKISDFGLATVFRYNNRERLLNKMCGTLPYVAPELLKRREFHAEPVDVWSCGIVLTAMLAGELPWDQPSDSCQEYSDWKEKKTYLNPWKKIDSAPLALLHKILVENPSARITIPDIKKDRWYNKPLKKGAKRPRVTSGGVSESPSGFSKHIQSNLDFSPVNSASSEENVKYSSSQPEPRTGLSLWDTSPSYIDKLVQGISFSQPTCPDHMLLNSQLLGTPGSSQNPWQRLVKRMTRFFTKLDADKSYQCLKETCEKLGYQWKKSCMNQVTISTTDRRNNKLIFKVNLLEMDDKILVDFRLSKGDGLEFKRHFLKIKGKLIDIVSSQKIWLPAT

[11] = molecular target: Ribosomal protein S6 kinase alpha-5 (Homo sapiens) (UniProt O75582); experiment: Percentage MSK1 activity remaining in the presence of 0.01uM inhibitor
Sequence of Ribosomal protein S6 kinase alpha-5 (Homo sapiens) (O75582 whole entry, looked up): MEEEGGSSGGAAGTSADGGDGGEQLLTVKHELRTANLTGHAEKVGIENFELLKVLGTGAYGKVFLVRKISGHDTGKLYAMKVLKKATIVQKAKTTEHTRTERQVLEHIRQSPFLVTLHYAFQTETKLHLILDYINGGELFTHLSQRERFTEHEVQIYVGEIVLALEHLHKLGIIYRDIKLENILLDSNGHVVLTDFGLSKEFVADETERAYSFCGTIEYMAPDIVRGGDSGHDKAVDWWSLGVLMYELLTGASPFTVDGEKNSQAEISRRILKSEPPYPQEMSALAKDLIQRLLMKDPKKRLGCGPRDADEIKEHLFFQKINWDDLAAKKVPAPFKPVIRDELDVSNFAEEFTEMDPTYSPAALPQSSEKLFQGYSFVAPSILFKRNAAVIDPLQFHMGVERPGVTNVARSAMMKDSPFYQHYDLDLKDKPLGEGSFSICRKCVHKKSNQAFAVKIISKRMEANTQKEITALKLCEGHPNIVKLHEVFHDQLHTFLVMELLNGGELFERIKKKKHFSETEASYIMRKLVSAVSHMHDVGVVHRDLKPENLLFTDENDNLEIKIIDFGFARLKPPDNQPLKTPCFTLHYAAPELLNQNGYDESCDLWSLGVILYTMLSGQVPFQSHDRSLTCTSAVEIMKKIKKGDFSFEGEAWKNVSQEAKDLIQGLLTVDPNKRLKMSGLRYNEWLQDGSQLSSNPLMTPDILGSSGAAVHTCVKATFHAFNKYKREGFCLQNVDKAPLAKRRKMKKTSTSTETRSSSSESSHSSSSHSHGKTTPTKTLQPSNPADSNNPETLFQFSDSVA

[12] = molecular target: Ribosomal protein S6 kinase alpha-1 (Homo sapiens) (UniProt Q15418); experiment: Percentage RSK1 activity remaining in the presence of 0.01uM inhibitor
Sequence of Ribosomal protein S6 kinase alpha-1 (Homo sapiens) (Q15418 whole entry): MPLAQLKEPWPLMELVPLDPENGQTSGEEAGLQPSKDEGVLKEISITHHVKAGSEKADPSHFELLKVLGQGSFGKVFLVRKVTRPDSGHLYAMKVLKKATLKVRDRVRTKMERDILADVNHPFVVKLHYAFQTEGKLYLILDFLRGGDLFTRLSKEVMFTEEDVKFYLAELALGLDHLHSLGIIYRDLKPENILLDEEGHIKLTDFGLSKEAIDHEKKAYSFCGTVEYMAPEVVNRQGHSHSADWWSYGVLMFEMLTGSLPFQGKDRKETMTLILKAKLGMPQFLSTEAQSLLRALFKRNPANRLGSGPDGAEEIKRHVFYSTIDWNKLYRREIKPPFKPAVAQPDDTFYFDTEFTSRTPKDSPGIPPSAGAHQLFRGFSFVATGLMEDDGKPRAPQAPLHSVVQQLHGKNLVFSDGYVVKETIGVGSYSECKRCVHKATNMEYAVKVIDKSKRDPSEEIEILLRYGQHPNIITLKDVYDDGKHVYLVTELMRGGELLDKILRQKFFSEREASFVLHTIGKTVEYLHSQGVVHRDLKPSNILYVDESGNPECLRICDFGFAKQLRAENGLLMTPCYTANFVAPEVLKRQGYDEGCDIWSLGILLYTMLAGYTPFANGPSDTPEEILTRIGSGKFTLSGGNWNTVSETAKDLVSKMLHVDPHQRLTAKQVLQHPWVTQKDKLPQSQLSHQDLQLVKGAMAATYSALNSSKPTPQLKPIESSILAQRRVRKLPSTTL

[13] = molecular target: T2, Eukaryotic elongation factor 2 kinase (Homo sapiens) (UniProt O00418); experiment: Percentage EF2K activity remaining in the presence of 0.01uM inhibitor
T2 sequence (whole entry): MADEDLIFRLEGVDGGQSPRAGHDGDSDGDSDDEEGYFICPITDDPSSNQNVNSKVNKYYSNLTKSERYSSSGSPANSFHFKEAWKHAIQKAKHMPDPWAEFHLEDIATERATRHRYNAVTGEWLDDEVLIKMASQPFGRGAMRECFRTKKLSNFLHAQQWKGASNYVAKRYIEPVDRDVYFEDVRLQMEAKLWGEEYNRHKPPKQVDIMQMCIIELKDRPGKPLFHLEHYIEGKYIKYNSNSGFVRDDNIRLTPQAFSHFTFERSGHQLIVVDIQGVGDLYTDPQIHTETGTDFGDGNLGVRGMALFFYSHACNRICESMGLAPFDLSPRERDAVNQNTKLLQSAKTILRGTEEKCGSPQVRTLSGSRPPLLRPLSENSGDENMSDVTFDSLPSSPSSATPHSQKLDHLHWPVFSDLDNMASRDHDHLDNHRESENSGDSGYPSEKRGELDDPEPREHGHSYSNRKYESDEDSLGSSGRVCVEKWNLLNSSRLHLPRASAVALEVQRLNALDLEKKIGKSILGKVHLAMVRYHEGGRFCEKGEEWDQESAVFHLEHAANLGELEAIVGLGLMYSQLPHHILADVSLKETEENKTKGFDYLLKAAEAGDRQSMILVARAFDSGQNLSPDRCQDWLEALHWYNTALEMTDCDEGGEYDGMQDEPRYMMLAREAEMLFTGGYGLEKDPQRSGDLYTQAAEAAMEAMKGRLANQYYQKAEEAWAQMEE

[14] = molecular target: MAP kinase-activated protein kinase 2 (Homo sapiens) (UniProt P49137); experiment: Percentage MAPKAPK2 activity remaining in the presence of 0.01uM inhibitor
Sequence of MAP kinase-activated protein kinase 2 (Homo sapiens) (P49137 whole entry, looked up): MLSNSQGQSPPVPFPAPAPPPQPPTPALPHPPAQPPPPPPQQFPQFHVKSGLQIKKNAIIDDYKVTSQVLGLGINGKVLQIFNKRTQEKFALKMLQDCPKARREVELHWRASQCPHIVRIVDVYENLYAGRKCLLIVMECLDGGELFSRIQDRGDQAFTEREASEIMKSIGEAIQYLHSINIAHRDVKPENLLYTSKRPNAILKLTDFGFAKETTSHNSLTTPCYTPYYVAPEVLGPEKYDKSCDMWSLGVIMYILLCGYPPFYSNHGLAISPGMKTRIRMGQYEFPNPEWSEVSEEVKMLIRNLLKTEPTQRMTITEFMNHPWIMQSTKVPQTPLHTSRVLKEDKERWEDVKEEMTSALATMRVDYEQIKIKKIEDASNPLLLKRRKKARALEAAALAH

[15] = molecular target: T3, Inhibitor of nuclear factor kappa-B kinase subunit beta (Homo sapiens) (UniProt O14920); experiment: Percentage IKK-beta activity remaining in the presence of 0.01uM inhibitor
T3 sequence (whole entry): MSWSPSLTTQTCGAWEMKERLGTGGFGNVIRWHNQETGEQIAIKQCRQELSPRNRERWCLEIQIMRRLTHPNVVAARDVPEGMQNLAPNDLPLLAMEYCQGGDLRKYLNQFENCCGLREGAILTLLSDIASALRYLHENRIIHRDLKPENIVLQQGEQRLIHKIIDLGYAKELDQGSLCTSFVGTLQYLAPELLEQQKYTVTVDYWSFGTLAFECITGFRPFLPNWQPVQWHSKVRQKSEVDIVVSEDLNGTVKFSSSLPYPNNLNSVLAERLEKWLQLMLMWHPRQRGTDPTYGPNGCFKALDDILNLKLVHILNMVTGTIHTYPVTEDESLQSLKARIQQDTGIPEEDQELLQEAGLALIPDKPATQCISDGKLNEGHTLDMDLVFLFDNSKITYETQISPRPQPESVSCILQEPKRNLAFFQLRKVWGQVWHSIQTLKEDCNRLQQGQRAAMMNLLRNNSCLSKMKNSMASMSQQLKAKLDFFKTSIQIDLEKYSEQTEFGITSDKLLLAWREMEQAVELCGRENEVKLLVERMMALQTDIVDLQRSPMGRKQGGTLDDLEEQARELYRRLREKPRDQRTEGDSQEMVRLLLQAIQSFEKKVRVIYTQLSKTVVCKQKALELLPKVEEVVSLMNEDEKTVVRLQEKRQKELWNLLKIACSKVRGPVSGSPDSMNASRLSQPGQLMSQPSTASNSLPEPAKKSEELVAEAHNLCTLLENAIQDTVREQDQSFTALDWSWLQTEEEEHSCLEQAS

[16] = molecular target: Calcium/calmodulin-dependent protein kinase kinase 2 (Homo sapiens) (UniProt Q96RR4); experiment: Percentage CaMKKbeta activity remaining in the presence of 0.01uM inhibitor
Sequence of Calcium/calmodulin-dependent protein kinase kinase 2 (Homo sapiens) (Q96RR4 2-588 limits assumed): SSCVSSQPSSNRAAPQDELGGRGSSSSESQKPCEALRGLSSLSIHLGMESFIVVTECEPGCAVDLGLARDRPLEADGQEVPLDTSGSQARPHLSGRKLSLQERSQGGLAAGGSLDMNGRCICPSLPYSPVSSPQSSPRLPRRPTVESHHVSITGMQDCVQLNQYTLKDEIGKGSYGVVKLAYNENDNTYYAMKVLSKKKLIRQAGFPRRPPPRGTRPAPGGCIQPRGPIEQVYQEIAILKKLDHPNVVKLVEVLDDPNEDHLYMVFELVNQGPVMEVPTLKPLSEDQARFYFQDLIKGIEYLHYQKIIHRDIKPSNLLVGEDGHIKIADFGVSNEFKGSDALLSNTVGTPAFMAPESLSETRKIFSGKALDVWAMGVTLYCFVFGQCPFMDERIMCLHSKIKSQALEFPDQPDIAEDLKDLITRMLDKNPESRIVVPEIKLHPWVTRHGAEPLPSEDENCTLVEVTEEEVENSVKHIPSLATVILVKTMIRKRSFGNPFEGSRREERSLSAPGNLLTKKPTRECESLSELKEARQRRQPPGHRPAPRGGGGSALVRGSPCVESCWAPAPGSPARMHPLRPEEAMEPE

[17] = molecular target: Mitogen-activated protein kinase 10 (Homo sapiens) (UniProt P53779); experiment: Percentage JNK3 activity remaining in the presence of 0.01uM inhibitor
Sequence of Mitogen-activated protein kinase 10 (Homo sapiens) (P53779 whole entry): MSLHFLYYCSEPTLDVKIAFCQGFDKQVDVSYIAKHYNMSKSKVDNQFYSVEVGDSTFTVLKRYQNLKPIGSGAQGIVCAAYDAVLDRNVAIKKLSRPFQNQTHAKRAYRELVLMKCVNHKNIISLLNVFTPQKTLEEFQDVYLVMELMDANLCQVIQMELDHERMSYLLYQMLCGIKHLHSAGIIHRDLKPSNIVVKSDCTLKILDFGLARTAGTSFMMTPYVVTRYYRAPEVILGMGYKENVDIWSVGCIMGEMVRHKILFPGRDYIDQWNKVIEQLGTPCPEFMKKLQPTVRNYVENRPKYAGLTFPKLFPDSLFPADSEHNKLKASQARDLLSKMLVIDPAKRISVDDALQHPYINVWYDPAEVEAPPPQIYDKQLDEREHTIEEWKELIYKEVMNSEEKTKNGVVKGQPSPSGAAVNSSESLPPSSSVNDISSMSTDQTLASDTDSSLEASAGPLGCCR

SMILES	Activity [1] [%]	Activity [2] [%]	Activity [3] [%]	Activity [5] [%]	Activity [6] [%]	Activity [7] [%]	Activity [8] [%]	Activity [9] [%]	Activity [10] [%]	Activity [11] [%]	Activity [12] [%]	Activity [13] [%]	Activity [14] [%]	Activity [15] [%]	Activity [16] [%]	Activity [17] [%]	Activity [4] [%]	further results
O=C(NCCCNc1nc(Nc2cccc(NC(=O)N3CCCC3)c2)ncc1I)c1cccs1	82	90	50	103	90	103	95	104	84	88	100	98	108	108	82	93		Activity ([4]; filed as antagonist): 47%
Cc1n[nH]c2ccc(-c3cncc(OC[C@@H](N)Cc4c[nH]c5ccccc45)c3)cc12	77		84	57	91	91	90	89	100		78	93	92	93	83	81	97	Activity ([2]; filed as antagonist): 5%; Activity ([11]; filed as antagonist): 19%
CN[C@@H]1C[C@H]2O[C@@](C)([C@@H]1OC)n1c3ccccc3c3c4c(c5c6ccccc6n2c5c31)C(=O)N[C@H]4O (stereo in doubt)	112	79	75	52	76	107	116	79		68		105	75	86		107	103	Activity ([10]; filed as antagonist): 12%; Activity ([12]; filed as antagonist): 25%; Activity ([16]; filed as antagonist): 21%
